Experiments:
Solubility = format: physicochemical; settings: after mild reduction (e.g., ascorbic acid)
myeloperoxidase (MPO) = experiment: Myeloperoxidase (MPO) enzyme assay in ear biopsies from treated mice; format: in vivo, mouse; settings: pooled ear bores
Source text: Myeloperoxidase (MPO) Enzyme Assay
The neutrophil-specific marker released from primary granules, myeloperoxidase (MPO), in ear biopsies from treated and untreated mouse ears was extracted and quantitated according to a modified method of Bradley, P. O., Priebat, D. A., Christensen, R. D. and Rothstein, G., "Measurement of cutaneous inflammation estimation of neutrophil content with an enzyme marker," J. Invest Dermatology 78: 206-209, 1982. This enzyme is indicative of the extravasation of pro-inflammation neutrophils from blood into the skin. Ear bores from each treatment group from mouse ear edema assays were pooled and homogenized in 80 mM sodium phosphate buffer (pH 5.4) containing 0.5% hexadecyltrimethylammonium bromide in a siliconized glass test tube for 1 min. at 0° C. using a Brinkman Polytron. The mixtures were centrifuged at 10,000×g at 4° C. for 30 min. Samples (10 μl) from each group were then assayed in a 96-well microtiter plate. The assay was initiated by adding 250 μl of o-dianisi-dine/phosphate reagent (0.28 mg of dianisidine added to 1 ml of 50 mM sodium phosphate containing […]) to each well. After a 30 minutes incubation of 37° C., the plates were read at 450 nm on a Molecular Devices microplate reader. Diluted control biopsies were utilized to develop a standard curve. Optical density values from drug-treated groups were compared to control groups to determine % of control values of enzyme activity.

[1] = tested on: mouse ear edema (Phorbol 12-myristate 13-acetate, PMA); experiment: Inhibition of PMA-induced inflammation (edema) of the mouse ear; format: in vivo; settings: PMA 2 μg/ear, 3 hours, 20 minutes
Protocol: Inhibition of Inflammation (Edema) of the Mouse Ear
Compounds 1 and 1R were topically applied in acetone to the inside pinnae of the ears of mice in a solution containing the edema-causing irritant, Phorbol 12-myristate 13-acetate (PMA). […] After 3 hours, 20 minutes incubation, the mice were sacrificed, the ears removed and bores taken and weighed. Edema was measured by subtracting the weight of the right ear (acetone control) from the weight of the left ear (treated). Results are recorded as % decrease (inhibition)or % increase (potentiation) in edema relative to the PMA control group edema.

## O=C1C(=Cc2ccc(O)cc2)c2[nH]c3ccccc3c2C1=C1C(=O)C(=Cc2ccc(O)cc2)C2=Nc3ccccc3C21 (centres unmarked) [Compound 1R]
Solubility
  Solubility properties relative to Compound 1: slightly improved solubility properties
Myeloperoxidase (MPO); dose 1 ug/ear
  MPO Enzyme Activity, % of Control: 81%
Myeloperoxidase (MPO); dose 5 ug/ear
  MPO Enzyme Activity, % of Control: 82%
Myeloperoxidase (MPO); dose 10 ug/ear
  MPO Enzyme Activity, % of Control: 32%
Myeloperoxidase (MPO); dose 100 ug/ear
  MPO Enzyme Activity, % of Control: 10%
[1]; topical dose 1 ug/ear
  Dose Response Inhibition of Mouse Ear Edema: 22%
[1]; topical dose 5 ug/ear
  Dose Response Inhibition of Mouse Ear Edema: 17%
[1]; topical dose 10 ug/ear
  Dose Response Inhibition of Mouse Ear Edema: 49%
[1]; topical dose 50 ug/ear
  Dose Response Inhibition of Mouse Ear Edema: 94%
[1]; topical dose 50 ug/ml (so in the source)
  Inhibition of Mouse Ear Edema: 94%
[1]; topical dose 100 ug/ear
  Dose Response Inhibition of Mouse Ear Edema: 95%

From patent US5498405A, “Indole alkaloids useful as UV protective and anti-inflammatory agents” (The Regents of the University of California, priority 1995, dated 1996)
